How the values were obtained:
[1] = system: MDA-MB-231 breast cancer cells; experiment: In vitro enzyme prodrug cytotoxicity (Alamar Blue), MDA-MB-231; format: cell-based, human; conditions: 500 μM L-methionine
Experimental: (§1) In Vitro Enyzme Prodrug Cytotoxicty to Cells: The experiment lasted 3 days, using the same cells for each of the days (day 0, 1, 2, and 3). Cells were grown and plated in 24-well plates with respective growth media using the same procedure as for the FP binding assay (see above). […] On day 0, a saturating concentration of FP was diluted in medium was added and incubated for 2 hours at 37° C. The plates were washed, and medium containing SeMet varying from 0 to 500 μM was added. The Alamar Blue assay was performed on all wells on day 0. […] The solution was transferred to an opaque 96-well plate, and the fluorescence was read at 590 nm using excitation at 530 nm. The blank consisted of wells containing only medium (no cells). After the fluorescence reading, the plates were washed, replaced with fresh medium, and then placed in incubator. The readings were taken every 24 hours for the duration of the experiment. […] The ability of the enzyme prodrug system to eliminate human endothelial cells and breast cancer cells was evaluated using cells grown in vitro and plated on 24-well plates. […] Each of the cell lines in question metabolized the Alamar Blue to produce a fluorescence that was measured to quantify total cell viability. For each day, the fluorescence data from the Alamar Blue assay was expressed as a percentage of the fluorescence for the cells with no FP and 0 μM SeMet (control). […]

[2] = system: HAAE-1 endothelial cells; experiment: In vitro enzyme prodrug cytotoxicity (Alamar Blue), endothelial cells; format: cell-based, human; conditions: with saturating FP; 10 and 100 μM SeMet; days 2 and 3; 500 μM L-methionine
Experimental: as §1

[3] = system: MCF-7 breast cancer cells; experiment: In vitro enzyme prodrug cytotoxicity (Alamar Blue), MCF-7; format: cell-based, human
Experimental: as §1

[4] = system: PS exposed on MCF-7 breast cancer cells; experiment: Fusion protein equilibrium binding assay, MCF-7; set-up: species or system human; conditions: specific binding, biotin-labeled FP, no H2O2, read-out: dissociation constant (Kd)
Experimental: (§2) Fusion Protein Binding Assay: Endothelial cells were grown to 70-80% confluence in T-75 flasks. Cells were transferred to 24-well culture plates (5×10^4 cells/well) and grown to 80-85% confluence. Cells were fixed to the plate using 0.25% glutaraldehyde in binding buffer (PBS with 2 mM Ca^2+). Excess aldehyde groups were quenched using 50 mM NH4Cl in binding buffer. Varying concentrations of biotinylated FP were diluted in binding buffer containing 0.5% BSA and incubated at 37° C. for 2 hours. After washing with binding buffer with 0.5% BSA, streptavidin-HRP was added at 2 μg/ml and incubated at room temperature for 1 hour. Following washing with binding buffer, HRP was measured by adding the chromogenic substrate O-phenylenediamine (0.4 mg/ml) and hydrogen peroxide (0.012%) in phosphate-citrate buffer. After 30 minutes at room temperature in the dark, the solution was transferred to a transparent 96-well plate, and the absorbance was read at 450 nm on a microtiter plate reader. […] To determine non-specific binding, the same procedure was performed with no Ca^2+ and 5 mM EDTA in the binding buffer. […]
(§3) Binding of Fusion Protein: The ability of the Meth-AnnV FP to bind to human endothelial cells and breast cancer cells with PS exposed on the cell surface was evaluated by equilibrium binding experiments in which increasing concentrations of biotin-labeled FP were used. […]

[5] = system: MDA-MB-231 cells; experiment: Binding stability assay, MDA-MB-231; format: cell-based, human
Experimental: (§4) Binding Stability Assay: To assess how long the FP remains bound to the surface of the endothelial cells, a modified binding assay was used. Cells on 24-well plates were first incubated for 2 hours at 37° C. in a saturating concentration of biotinylated FP (50 nM) in complete growth medium with 2 mM Ca^2+. Then, the cells were fixed either at day 0, 1, 2 or 3 with 0.25% glutaraldehyde in binding buffer. Excess aldehyde groups were quenched by incubation in a 50 mM NH4Cl in binding buffer. The binding of FP was then quantitated using the same procedure used in the FP binding assay (see above).
(§5) Binding Stability: To assess how long the FP remains bound to the surface of the endothelial cells, a modified binding assay was used. Cells on 24-well plates were first incubated for 2 hours at 37° C. in a saturating concentration of biotinylated FP (50 nM) in complete growth medium with 2 mM Ca^2+. […] The binding of FP was then quantified using the same procedure used in the equilibrium FP binding assay. […] For each cell line, the slope by linear regression of the absorbance/RFU versus time data was obtained, with results as follows: 3.07×10^−5 per day for the endothelial cells (HAAE-1), 4.63×10^−5 per day for the MCF-7 cells, and 5.38×10^−5 per day for the MDA-MB-231 cells. Thus, the rate of change of absorbance/RFU was the lowest for the endothelial cells.

[6] = system: PS exposed on MDA-MB-231 breast cancer cells; experiment: Fusion protein equilibrium binding assay, MDA-MB-231; set-up: species or system human; conditions: specific binding, biotin-labeled FP, no H2O2, read-out: dissociation constant (Kd)
Experimental: as §2, §3

[7] = system: HAAE-1 endothelial cells; experiment: Binding stability assay, endothelial cells; format: cell-based, human
Experimental: as §4, §5

[8] = system: PS exposed on HAAE-1 aorta endothelial cells; experiment: Fusion protein equilibrium binding assay, endothelial cells; set-up: species or system human; conditions: specific binding (total minus non-specific without Ca2+), biotin-labeled FP, no H2O2, read-out: dissociation constant (Kd)
Experimental: as §2, §3

[9] = system: MCF-7 cells; experiment: Binding stability assay, MCF-7; format: cell-based, human
Experimental: as §4, §5

[10] = Storage stability of L-methioninase activity in lyophilized form; format: physicochemical; conditions: lyophilized form at −80° C.
[11] = L-methioninase enzyme activity with L-methionine as substrate; format: biochemical
Experimental: Protein Content and Enzymatic Activity Determination: The Bradford assay from Bio-Rad (Hercules, Calif.) was used for all protein determinations throughout the purification using bovine serum albumin (BSA) as the standard. Samples were analyzed by denaturing gel electrophoresis using the SDS-PAGE method with Coomassie blue staining (Laemmli, 1970).

[12] = L-methioninase from P. putida; Esaki and Soda 1987; cited from earlier work
[13] = system: human brain tumor xenografts; conditions: cited from earlier work
[14] = system: endothelial cells; conditions: van Heerde et al., 1994a and b; read-out: Kd, literature values of annexin V binding alone to endothelial cells; cited from earlier work
[15] = 50 nM biotinylated FP, days 0-3, 500 μM L-methionine
[16] = period of the experiment 3 days

## C[Se]CC[C@H](N)C(=O)O [SeMet, selenomethionine]
[1]; with saturating FP, 10 and 500 μM SeMet, days 1, 2 and 3
  cell killing (cell viability, Alamar Blue) vs same SeMet without FP: significant killing
[2]
  cell killing (cell viability, Alamar Blue) vs same SeMet without FP: Significant cell killing
[3]; no FP, 500 μM SeMet, day 3, p<0.05
  cell viability vs control, SeMet by itself: significantly lower
[3]; with saturating FP, day 2 with 500 μM SeMet, day 3 with 100 and 500 μM SeMet, 2000 μM L-methionine
  cell killing (cell viability, Alamar Blue) vs same SeMet without FP: significant cell killing

## FP: Fusion protein of Pseudomonas putida L-methioninase linked by a flexible linker to human annexin V, SEQ ID NO:2
[4]
  Kd: 1.9 ± 1.2 nM
[5]; [15]
  slope by linear regression of absorbance/RFU versus time: 5.38×10^−5 per day
[5]; [16]
  duration FP stays bound to the cells: at least 3 days
[1]; no SeMet
  cell viability when FP added, no SeMet present: significant decrease in cell viability
[6]
  Kd: 2.2 ± 1.2 nM
[7]; [15]
  slope by linear regression of absorbance/RFU versus time: 3.07×10^−5 per day
[7]; [16]
  duration FP stays bound to the cells: at least 3 days
[8]
  Kd: 1.7 ± 0.6 nM
[9]; 50 nM biotinylated FP, days 0-3, 2000 μM L-methionine
  slope by linear regression of absorbance/RFU versus time: 4.63×10^−5 per day
[9]; [16]
  duration FP stays bound to the cells: at least 3 days
[10]
  L-methioninase activity on storage: remained relatively constant
[11]; lyophilized FP
  methioninase specific activity: 1.0 U/mg of protein
[11]; purification step: After lyophilized
  Specific activity: 1.04 U/mg

## L-methionine-α-deamino-γ-mercaptomethane-lyase [L-methioninase]
[12]
  relative reactivity for DL-selenomethionine substrate versus L-methionine substrate: 2.8 times
[13]; after a 10-day period, same combined treatment
  tumor regression, share of animals: one-third
[13]; within four days, 44 mg/kg per day i.p. with homocystine and diet restricted in methionine, homocysteine, choline
  tumor stasis, share of treated animals: 100%

## annexin V: Ca2+-dependent anionic phospholipid binding protein; literature comparator for binding
[14]
  Kd: 2.7 to 15.5 nM
